Experimental findings from US10195179B2, “Spiro-lactam NMDA receptor modulators and uses thereof” (Aptinyx Inc., priority 2016, dated 2019) are described below.

The nature of one data set: Plasma stability, rat. The data set is classed as in vitro ADME. On the procedure:
Plasma stability for Compound AA and Compound BB was investigated. The following table indicates the percent of Compound AA and Compound BB remaining after 60 minutes.

The nature of data set [1]: Bioavailability and CSF/brain/plasma exposure after PO administration. The data set is classed as in vivo, Sprague Dawley rats. The settings on record: rat; for Kp: male, Sprague Dawley, 10 mg/kg PO. On the procedure: The bioavailablity of Compound BB was investigated following PO administration. CSF, brain and plasma samples were analyzed following dosing with compound BB (10 mg/kg). The following table indicates the bioavailablity and CSF/plasma and brain/plasma ratios.
Sprague Dawley rats were dosed intravenously with 2 mg/kg of Compound AA. A second group of Sprague Dawley rats was dosed per os with 10 mg/kg of compound AA. Plasma samples were drawn over a 24 h period and analyzed for Compound AA. FIG. 3A presents the mean plasma concentration-time profile of Compound AA following the single intraveneous (2 mg/kg) and oral (10 mg/kg) dose administration in male Sprague Dawley rats over the 24 hour period.
In another experiment. Sprague Dawley rats were dosed intravenously with 2 mg/kg of Compound BB. A second group of Sprague Dawley rats was dosed per os with 10 mg/kg of compound BB. Plasma samples were drawn over a 24 h period and analyzed for Compound BB. FIG. 3B presents the mean plasma concentration-time profile of Compound BB following the single intraveneous (2 mg/kg) and oral (10 mg/kg) dose administration in male Sprague Dawley rats over the 24 hour period.
In another experiment, Sprague Dawley rats were dosed per os with 10 mg/kg of Compound BB. Plasma, brain, and CSF samples were analyzed at various time points over a 24 hour period.

The next data set has as its system Sprague Dawley rats. The experiment in a line: Blast-induced traumatic brain injury/cognitive deficits measured by PEL. The format is in vivo, rat. Particulars: 10 mg/kg PO 1 h post-blast, PEL 48 hours post-blast. The text has this:
Single blast-induced traumatic brain injury/cognitive deficits were induced, modified for use in rats according to the protocol of Goldstein et al., “Chronic traumatic encephalopathy in blast-exposed military veterans and a blast neurotrauma mouse model,” Science Translational Medicine, Vol. 4, Issue 134, pp. 134ra60, 2012. Male 2-3 month old Sprague Dawley rats were used. Rats were housed in Lucite cages with aspen wood chip bedding, maintained on a 12:12 light:dark cycle (lights on at 5 AM), and given ad libitum access to Purina lab chow (USA) and tap water throughout the study. Rats were first anesthetized using 3.5-4% isoflurane, then the ears were protected with 1.5×1.5 mm foam plugs (Pura-Fit®, Moldex-Metric Inc., Culver City, Calif.), and the rat was placed into a head access rodent thoracic restrainer (Stoelting, USA) to protect the body while allowing the head to move freely. […]
PEL (Positive emotional learning) was conducted 48 hours post-blast. […] High frequency ultrasonic vocalizations (USVs) were recorded and analyzed by sonogram with Avasoft SASlab Pro (Germany) as previously described by Burgdorf et al., “Positive emotional learning is regulated in the medial prefrontal cortex by GluN2B-containing NMDA receptors,” Neuroscience, 192:515-523, 2011. Frequency modulated 50-kHz USVs that occurred during each the no-stimulation periods were quantified to measure PEL. […]

For data set [2], the system named is rat Schaffer collateral-evoked NMDA fEPSPs recorded in CA1 pyramidal neurons. The data set can be described thus: Long-term potentiation in hippocampal slices. The format is cell-based. Particulars: bath application 100 nm, 500 nm, 2 μM. On the procedure: Assays were conducted as described in Zhang et al. (Zhang, X. L., Sullivan, J. A., Moskal., J. R., Stanton, P. K., 2008. A NMDA receptor glycine site partial agonist, GLYX-13, simultaneously enhances LTP and reduces LTD at Schaffer collateral-CA1 synapses in hippocampus. Neuropharmacology, 55, 1238-50). See also Burgdorf, J, Zhang X L, Nicholson K L, Balster R L, Leander J D, Stanton P K, Gross A L, Kroes R A, Moskal J R (2013), GLYX-13, a NMDA receptor glycine-site functional partial agonist, induces antidepressant-like effects without ketamine-like side effects, Neuropsychopharmacology: official publication of the American College of Neuropsychopharmacology 38:729-742. […] A bipolar tungsten ystimulating electrode (FHC Co.) was placed on Schaffer collateral-commissural fibers in CA3 stratum radiatum, and constant current stimulus intensity adjusted to evoke approximately half-maximal fEPSPs once each 30 s ([…]; 100 μs duration). fEPSP slope was measured before and after induction of LTP by linear interpolation from 20 to 80% of maximum negative deflection, and slopes confirmed to be stable to within ±10% for at least 15 min before commencing an experiment. […] The signals were recorded using a Multiclamp 700B amplifier and digitized with a Digidata 1322 (Axon Instruments, USA).

Molecules are shown by their SMILES. Read-outs that look alike come from different tables or passages of the source.

Turning to `C[C@@H](O)[C@@H](C(N)=O)N1C[C@@]2(CCCN2S(C)(=O)=O)C1=O` [Compound BB, (2S,3R)-3-hydroxy-2-((S)-5-(methylsulfonyl)-1-oxo-2,5-diazaspiro[3,4]octan-2-yl)butanamide], the “Plasma Stability (% remaining at 60 min) Rat” value in the data set “Plasma stability, rat” was 86%. Besides, the Kp in data set [1] (CSF, read-out: CSF/plasma ratio) came to 0.48; in data set [1] (brain, read-out: Brain/plasma ratio) it was 0.12. Further, the bioavailability in data set [1] (plasma, PO administration (10 mg/kg PO, 2 mg/kg IV), male Sprague Dawley rats, read-out: Bioavailablity (% F)) came out at 82%. Also, the “blast-induced cognitive deficits as measured by PEL” value in the data set on Sprague Dawley rats is given as “reversed blast-induced cognitive deficits”. Also, in data set [2], the “long-term potentiation after high frequency stimulation” value is given as “increased long-term potentiation”.
